Test results from BigSolDB 2.1.

## O=C1Nc2ccccc2C1=O
In 1,4-dioxane, 293.15 K
  solubility (mole fraction): 0.0162
In 1,4-dioxane, 298.15 K
  solubility (mole fraction): 0.0188
In 1,4-dioxane, 303.15 K
  solubility (mole fraction): 0.0218
In 1,4-dioxane, 308.15 K
  solubility (mole fraction): 0.0252
In 1,4-dioxane, 313.15 K
  solubility (mole fraction): 0.029
In 1,4-dioxane, 318.15 K
  solubility (mole fraction): 0.0331
In 1,4-dioxane, 323.15 K
  solubility (mole fraction): 0.0378
In 1,4-dioxane, 328.15 K
  solubility (mole fraction): 0.0428
In 1,4-dioxane, 333.15 K
  solubility (mole fraction): 0.0484
In DMF, 283.15 K
  solubility (mole fraction): 0.127
In DMF, 288.25 K
  solubility (mole fraction): 0.135
In DMF, 293.25 K
  solubility (mole fraction): 0.143
In DMF, 298.15 K
  solubility (mole fraction): 0.151
In DMF, 303.15 K
  solubility (mole fraction): 0.16
In DMF, 308.25 K
  solubility (mole fraction): 0.17
In DMF, 313.25 K
  solubility (mole fraction): 0.179
In DMF, 318.45 K
  solubility (mole fraction): 0.19
In DMF, 323.15 K
  solubility (mole fraction): 0.198
In DMF, 328.15 K
  solubility (mole fraction): 0.209
In DMF, 333.15 K
  solubility (mole fraction): 0.218
In THF, 289.85 K
  solubility (mole fraction): 0.0197
In THF, 297.15 K
  solubility (mole fraction): 0.0234
In THF, 301.15 K
  solubility (mole fraction): 0.0254
In THF, 305.15 K
  solubility (mole fraction): 0.028
In THF, 308.95 K
  solubility (mole fraction): 0.0301
In THF, 314.05 K
  solubility (mole fraction): 0.0335
In THF, 318.35 K
  solubility (mole fraction): 0.0367
In THF, 323.15 K
  solubility (mole fraction): 0.0399
In acetone, 287.25 K
  solubility (mole fraction): 0.0109
In acetone, 292.75 K
  solubility (mole fraction): 0.0125
In acetone, 298.45 K
  solubility (mole fraction): 0.014
In acetone, 302.65 K
  solubility (mole fraction): 0.0158
In acetone, 308.35 K
  solubility (mole fraction): 0.0174
In acetone, 312.65 K
  solubility (mole fraction): 0.0193
In acetone, 318.15 K
  solubility (mole fraction): 0.0217
In acetone, 323.35 K
  solubility (mole fraction): 0.0241
In acetonitrile, 283.15 K
  solubility (mole fraction): 0.0042
In acetonitrile, 288.35 K
  solubility (mole fraction): 0.00498
In acetonitrile, 294.65 K
  solubility (mole fraction): 0.00608
In acetonitrile, 298.15 K
  solubility (mole fraction): 0.00675
In acetonitrile, 303.15 K
  solubility (mole fraction): 0.00789
In acetonitrile, 308.15 K
  solubility (mole fraction): 0.00893
In acetonitrile, 313.15 K
  solubility (mole fraction): 0.0103
In acetonitrile, 318.15 K
  solubility (mole fraction): 0.0118
In acetonitrile, 323.15 K
  solubility (mole fraction): 0.0136
In dichloromethane, 278.15 K
  solubility (mole fraction): 0.000788
In dichloromethane, 282.35 K
  solubility (mole fraction): 0.000876
In dichloromethane, 286.25 K
  solubility (mole fraction): 0.000982
In dichloromethane, 290.55 K
  solubility (mole fraction): 0.0011
In dichloromethane, 293.15 K
  solubility (mole fraction): 0.0012
In dichloromethane, 296.95 K
  solubility (mole fraction): 0.00132
In dichloromethane, 299.85 K
  solubility (mole fraction): 0.00141
In dichloromethane, 303.25 K
  solubility (mole fraction): 0.00153
In dichloromethane, 307.65 K
  solubility (mole fraction): 0.0017
In ethyl acetate, 288.15 K
  solubility (mole fraction): 0.00421
In ethyl acetate, 293.35 K
  solubility (mole fraction): 0.0048
In ethyl acetate, 298.25 K
  solubility (mole fraction): 0.00565
In ethyl acetate, 303.65 K
  solubility (mole fraction): 0.00637
In ethyl acetate, 308.65 K
  solubility (mole fraction): 0.00733
In ethyl acetate, 313.35 K
  solubility (mole fraction): 0.00822
In ethyl acetate, 318.15 K
  solubility (mole fraction): 0.0092
In ethyl acetate, 323.35 K
  solubility (mole fraction): 0.0103
In toluene, 288.15 K
  solubility (mole fraction): 0.000588
In toluene, 293.15 K
  solubility (mole fraction): 0.000637
In toluene, 298.15 K
  solubility (mole fraction): 0.000685
In toluene, 303.15 K
  solubility (mole fraction): 0.000714
In toluene, 308.15 K
  solubility (mole fraction): 0.000771
In toluene, 313.15 K
  solubility (mole fraction): 0.000819
In toluene, 318.15 K
  solubility (mole fraction): 0.000884
In toluene, 323.15 K
  solubility (mole fraction): 0.000926
